Experimental data reported in the NIST ThermoML archive (doi:10.1016/j.jct.2009.01.014).
Numbers after ± are expanded uncertainties.

Test: molar heat capacity at constant pressure
Settings: 101.33 kPa, Crystal 1, Vacuum adiabatic calorimetry

## [Al+3].[Al+3].[Co+2].[O-2].[O-2].[O-2].[O-2] [aluminium cobalt oxide]
146.83 K
  molar heat capacity at constant pressure: 57.16 ± 0.29 J/K/mol
147.05 K
  molar heat capacity at constant pressure: 57.28 ± 0.29 J/K/mol
149.96 K
  molar heat capacity at constant pressure: 58.88 ± 0.3 J/K/mol
150 K
  molar heat capacity at constant pressure: 58.9 ± 0.3 J/K/mol
150.67 K
  molar heat capacity at constant pressure: 59.3 ± 0.3 J/K/mol
152.88 K
  molar heat capacity at constant pressure: 60.51 ± 0.3 J/K/mol
154.53 K
  molar heat capacity at constant pressure: 61.45 ± 0.31 J/K/mol
155.79 K
  molar heat capacity at constant pressure: 62.12 ± 0.31 J/K/mol
158.38 K
  molar heat capacity at constant pressure: 63.57 ± 0.32 J/K/mol
158.7 K
  molar heat capacity at constant pressure: 63.68 ± 0.32 J/K/mol
160 K
  molar heat capacity at constant pressure: 64.37 ± 0.32 J/K/mol
161.62 K
  molar heat capacity at constant pressure: 65.3 ± 0.32 J/K/mol
162.25 K
  molar heat capacity at constant pressure: 65.67 ± 0.32 J/K/mol
164.55 K
  molar heat capacity at constant pressure: 66.89 ± 0.33 J/K/mol
166.11 K
  molar heat capacity at constant pressure: 67.74 ± 0.33 J/K/mol
167.47 K
  molar heat capacity at constant pressure: 68.46 ± 0.33 J/K/mol
169.98 K
  molar heat capacity at constant pressure: 69.8 ± 0.34 J/K/mol
170 K
  molar heat capacity at constant pressure: 69.81 ± 0.34 J/K/mol
170.39 K
  molar heat capacity at constant pressure: 70.02 ± 0.34 J/K/mol
173.28 K
  molar heat capacity at constant pressure: 71.53 ± 0.34 J/K/mol
173.86 K
  molar heat capacity at constant pressure: 71.81 ± 0.35 J/K/mol
176.14 K
  molar heat capacity at constant pressure: 73.02 ± 0.35 J/K/mol
177.74 K
  molar heat capacity at constant pressure: 73.82 ± 0.35 J/K/mol
178.97 K
  molar heat capacity at constant pressure: 74.47 ± 0.36 J/K/mol
180 K
  molar heat capacity at constant pressure: 74.99 ± 0.36 J/K/mol
181.6 K
  molar heat capacity at constant pressure: 75.79 ± 0.36 J/K/mol
181.77 K
  molar heat capacity at constant pressure: 75.91 ± 0.36 J/K/mol
184.55 K
  molar heat capacity at constant pressure: 77.27 ± 0.37 J/K/mol
185.41 K
  molar heat capacity at constant pressure: 77.67 ± 0.37 J/K/mol
187.3 K
  molar heat capacity at constant pressure: 78.65 ± 0.37 J/K/mol
189.19 K
  molar heat capacity at constant pressure: 79.56 ± 0.37 J/K/mol
190 K
  molar heat capacity at constant pressure: 79.97 ± 0.38 J/K/mol
190.03 K
  molar heat capacity at constant pressure: 79.99 ± 0.38 J/K/mol
192.74 K
  molar heat capacity at constant pressure: 81.28 ± 0.38 J/K/mol
192.91 K
  molar heat capacity at constant pressure: 81.34 ± 0.38 J/K/mol
195.43 K
  molar heat capacity at constant pressure: 82.61 ± 0.39 J/K/mol
196.6 K
  molar heat capacity at constant pressure: 83.11 ± 0.39 J/K/mol
198.09 K
  molar heat capacity at constant pressure: 83.83 ± 0.39 J/K/mol
200 K
  molar heat capacity at constant pressure: 84.73 ± 0.39 J/K/mol
200.24 K
  molar heat capacity at constant pressure: 84.85 ± 0.39 J/K/mol
200.74 K
  molar heat capacity at constant pressure: 85.08 ± 0.4 J/K/mol
203.36 K
  molar heat capacity at constant pressure: 86.29 ± 0.4 J/K/mol
203.85 K
  molar heat capacity at constant pressure: 86.5 ± 0.4 J/K/mol
205.97 K
  molar heat capacity at constant pressure: 87.49 ± 0.4 J/K/mol
207.42 K
  molar heat capacity at constant pressure: 88.12 ± 0.41 J/K/mol
208.56 K
  molar heat capacity at constant pressure: 88.63 ± 0.41 J/K/mol
210 K
  molar heat capacity at constant pressure: 89.28 ± 0.41 J/K/mol
210.96 K
  molar heat capacity at constant pressure: 89.71 ± 0.41 J/K/mol
211.13 K
  molar heat capacity at constant pressure: 89.82 ± 0.41 J/K/mol
213.68 K
  molar heat capacity at constant pressure: 90.9 ± 0.42 J/K/mol
214.47 K
  molar heat capacity at constant pressure: 91.27 ± 0.42 J/K/mol
216.22 K
  molar heat capacity at constant pressure: 92.07 ± 0.42 J/K/mol
217.95 K
  molar heat capacity at constant pressure: 92.81 ± 0.43 J/K/mol
218.74 K
  molar heat capacity at constant pressure: 93.14 ± 0.43 J/K/mol
220 K
  molar heat capacity at constant pressure: 93.68 ± 0.43 J/K/mol
221.25 K
  molar heat capacity at constant pressure: 94.2 ± 0.43 J/K/mol
221.4 K
  molar heat capacity at constant pressure: 94.18 ± 0.43 J/K/mol
223.74 K
  molar heat capacity at constant pressure: 95.23 ± 0.43 J/K/mol
224.82 K
  molar heat capacity at constant pressure: 95.65 ± 0.44 J/K/mol
226.22 K
  molar heat capacity at constant pressure: 96.27 ± 0.44 J/K/mol
228.21 K
  molar heat capacity at constant pressure: 97.04 ± 0.44 J/K/mol
228.69 K
  molar heat capacity at constant pressure: 97.25 ± 0.44 J/K/mol
230 K
  molar heat capacity at constant pressure: 97.8 ± 0.44 J/K/mol
231.14 K
  molar heat capacity at constant pressure: 98.26 ± 0.45 J/K/mol
231.58 K
  molar heat capacity at constant pressure: 98.37 ± 0.45 J/K/mol
233.58 K
  molar heat capacity at constant pressure: 99.23 ± 0.45 J/K/mol
234.92 K
  molar heat capacity at constant pressure: 99.71 ± 0.45 J/K/mol
236.01 K
  molar heat capacity at constant pressure: 100.16 ± 0.45 J/K/mol
238.24 K
  molar heat capacity at constant pressure: 101.02 ± 0.46 J/K/mol
238.42 K
  molar heat capacity at constant pressure: 101.09 ± 0.46 J/K/mol
240 K
  molar heat capacity at constant pressure: 101.73 ± 0.46 J/K/mol
240.83 K
  molar heat capacity at constant pressure: 102.05 ± 0.46 J/K/mol
241.54 K
  molar heat capacity at constant pressure: 102.25 ± 0.46 J/K/mol
243.22 K
  molar heat capacity at constant pressure: 102.92 ± 0.46 J/K/mol
244.81 K
  molar heat capacity at constant pressure: 103.49 ± 0.47 J/K/mol
245.59 K
  molar heat capacity at constant pressure: 103.81 ± 0.47 J/K/mol
247.96 K
  molar heat capacity at constant pressure: 104.73 ± 0.47 J/K/mol
248.06 K
  molar heat capacity at constant pressure: 104.72 ± 0.47 J/K/mol
250 K
  molar heat capacity at constant pressure: 105.45 ± 0.47 J/K/mol
250.32 K
  molar heat capacity at constant pressure: 105.57 ± 0.47 J/K/mol
251.29 K
  molar heat capacity at constant pressure: 105.92 ± 0.48 J/K/mol
252.67 K
  molar heat capacity at constant pressure: 106.55 ± 0.48 J/K/mol
254.51 K
  molar heat capacity at constant pressure: 106.81 ± 0.48 J/K/mol
255.02 K
  molar heat capacity at constant pressure: 106.86 ± 0.48 J/K/mol
257.35 K
  molar heat capacity at constant pressure: 107.86 ± 0.48 J/K/mol
257.71 K
  molar heat capacity at constant pressure: 108 ± 0.48 J/K/mol
259.68 K
  molar heat capacity at constant pressure: 108.69 ± 0.49 J/K/mol
260 K
  molar heat capacity at constant pressure: 108.81 ± 0.49 J/K/mol
260.89 K
  molar heat capacity at constant pressure: 109.14 ± 0.49 J/K/mol
261.99 K
  molar heat capacity at constant pressure: 109.47 ± 0.49 J/K/mol
264.06 K
  molar heat capacity at constant pressure: 110.17 ± 0.49 J/K/mol
